Measured values from US11708359B2, “Monoacylglycerol lipase modulators” (Janssen Pharmaceutica NV, priority 2020, dated 2023).

target: human MGL from HeLa cells (Homo sapiens (Human), UniProt Q99685); test: MGL in vitro activity assay ([glycerol-1,3-3H]-oleoyl glycerol cleavage, activated carbon filter); format: biochemical; conditions: 300 nM [Glycerol-1,3-3H]-oleoyl glycerol, endogenously expressed MGL from HeLa cells, one hour incubation; read-out: MGL IC50
Procedure, shortened: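 Endogenous MGL in HeLa cells or homogenates was incubated with compound and 300 nM [glycerol-1,3-3H]-oleoyl glycerol for one hour. Reactions were filtered through activated carbon, and tritiated glycerol in the flow-through was counted as a measure of activity.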

Chain of human MGL from HeLa cells (Q99685 whole entry): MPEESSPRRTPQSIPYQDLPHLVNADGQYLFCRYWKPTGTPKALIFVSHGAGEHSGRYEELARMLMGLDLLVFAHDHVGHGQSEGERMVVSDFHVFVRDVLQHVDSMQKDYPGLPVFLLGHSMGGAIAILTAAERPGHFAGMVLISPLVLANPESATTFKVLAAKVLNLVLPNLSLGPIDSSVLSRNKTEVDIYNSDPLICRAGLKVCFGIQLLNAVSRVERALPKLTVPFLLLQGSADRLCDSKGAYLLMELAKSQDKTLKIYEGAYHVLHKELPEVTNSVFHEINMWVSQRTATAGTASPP

| SMILES | IC50 |
| --- | --- |
| Cc1ccc([C@H]2[C@@H]3CN(C(=O)[C@H]4C[C@]5(COC(=O)N5)C4)C[C@@H]32)cc1C(F)(F)F [Example 85, (2s,4S)-2-((1R,5S,6S)-6-(4-Methyl-3-(trifluoromethyl)phenyl)-3-azabicyclo[3.1.0]hexane-3-carbonyl)-7-oxa-5-azaspiro[3.4]octan-6-one] | 4.4 nM |
| O=C1N[C@]2(CO1)C[C@H](C(=O)N1CC3CC3(c3ccccc3)C1)C2 (mixture of isomers) [Example 4, (rac)-(2s,4s)-2-(1-Phenyl-3-azabicyclo[3.1.0]hexane-3-carbonyl)-7-oxa-5-azaspiro[3.4]octan-6-one] | 49 nM |
| CC(C)c1ccc([C@]23C[C@H]2CN(C(=O)[C@H]2C[C@]4(COC(=O)N4)C2)C3)cc1 (stereo in doubt) [Example 11, (2s,4*R)-2-((1*S,5*R)-1-(4-Isopropylphenyl)-3-azabicyclo[3.1.0]hexane-3-carbonyl)-7-oxa-5-azaspiro[3.4]octan-6-one] | 2.3 nM |
| O=C1N[C@]2(CO1)C[C@H](C(=O)N1C[C@@H]3[C@H](C1)[C@H]3c1ccc(C(F)(F)F)cc1)C2 [Example 80, (2s,4S)-2-((1R,5S,6S)-6-(4-(Trifluoromethyl)phenyl)-3-azabicyclo[3.1.0]hexane-3-carbonyl)-7-oxa-5-azaspiro[3.4]octan-6-one] | 33 nM |
| CC(C)c1cccc([C@]23C[C@H]2CN(C(=O)[C@H]2C[C@]4(COC(=O)N4)C2)C3)c1 (stereo in doubt) [Example 8, (2s,4*R)-2-((1*S,5*R)-1-(3-Isopropylphenyl)-3-azabicyclo[3.1.0]hexane-3-carbonyl)-7-oxa-5-azaspiro[3.4]octan-6-one] | 11 nM |
| O=C1N[C@]2(CO1)C[C@H](C(=O)N1CC3CC3(c3ccc(C4CC4)cc3)C1)C2 (mixture of isomers) [Example 18, (rac)-(2s,4s)-2-(1-(4-Cyclopropylphenyl)-3-azabicyclo[3.1.0]hexane-3-carbonyl)-7-oxa-5-azaspiro[3.4]octan-6-one] | 4.4 nM |
| Cc1ccc([C@H]2[C@@H]3CN(C(=O)[C@H]4C[C@]5(COC(=O)N5)C4)C[C@@H]32)cc1Cl [Example 110, (2s,4S)-2-((1R,5S,6S)-6-(3-Chloro-4-methylphenyl)-3-azabicyclo[3.1.0]hexane-3-carbonyl)-7-oxa-5-azaspiro[3.4]octan-6-one] | 17 nM |
| O=C1N[C@]2(CO1)C[C@H](C(=O)N1CCC3(c4cccc(C(F)(F)F)c4)CC3C1)C2 (mixture of isomers) [Example 57, (rac)-(2s,4s)-2-(6-(3-(Trifluoromethyl)phenyl)-3-azabicyclo[4.1.0]heptane-3-carbonyl)-7-oxa-5-azaspiro[3.4]octan-6-one] | 1.9 nM |
| O=C1CCC2(CC(C(=O)N3CC[C@]4(c5cccc(OC(F)(F)F)c5)C[C@@H]4C3)C2)N1 (relative stereo) [Example 120, (2r,4*R)-2-((1*S,6*R)-6-(3-(Trifluoromethoxy)phenyl)-3-azabicyclo[4.1.0]heptane-3-carbonyl)-5-azaspiro[3.4]octan-6-one] | 23 nM |
| O=C1N[C@]2(CO1)C[C@H](C(=O)N1CC3CC3(c3cccc(C4CC4)c3)C1)C2 (mixture of isomers) [Example 16, (rac)-(2s,4s)-2-(1-(3-Cyclopropylphenyl)-3-azabicyclo[3.1.0]hexane-3-carbonyl)-7-oxa-5-azaspiro[3.4]octan-6-one] | 5.6 nM |
| CC(C)(C(=O)O)c1cccc([C@H]2[C@@H]3CN(C(=O)[C@H]4C[C@]5(COC(=O)N5)C4)C[C@@H]32)c1 [Example 105] | 300 nM |
| O=C1CC[C@]2(C[C@H](C(=O)N3CCC4(c5cccc(C6CC6)c5)CC4C3)C2)N1 (mixture of isomers) [Example 65, (rac)-(2r,4s)-2-(6-(3-Cyclopropylphenyl)-3-azabicyclo[4.1.0]heptane-3-carbonyl)-5-azaspiro[3.4]octan-6-one] | 4 nM |
| C[C@]12CN(C(=O)[C@H]3C[C@]4(COC(=O)N4)C3)C[C@H]1[C@@H]2c1cccc(C(F)(F)F)c1 (racemic) [Example 106, (rac)-(2s,4*5)-2-((1*R,5*S,6*R)-1-Methyl-6-(3-(trifluoromethyl)phenyl)-3-azabicyclo[3.1.0]hexane-3-carbonyl)-7-oxa-5-azaspiro[3.4]octan-6-one] | 28 nM |
| CCc1ccc([C@H]2[C@@H]3CN(C(=O)[C@H]4C[C@]5(COC(=O)N5)C4)C[C@@H]32)cc1 [Example 86, (2s,4S)-2-((1R,5S,6S)-6-(4-Ethylphenyl)-3-azabicyclo[3.1.0]hexane-3-carbonyl)-7-oxa-5-azaspiro[3.4]octan-6-one] | 25 nM |
| O=C1N[C@]2(CO1)C[C@H](C(=O)N1CC3CC3(c3cccc(C(F)(F)F)c3)C1)C2 (mixture of isomers) [Example 23, (rac)-(2s,4s)-2-(1-(3-(Trifluoromethyl)phenyl)-3-azabicyclo[3.1.0]hexane-3-carbonyl)-7-oxa-5-azaspiro[3.4]octan-6-one] | 14 nM |
| Cc1ccc([C@H]2[C@@H]3CN(C(=O)[C@H]4C[C@]5(COC(=O)N5)C4)C[C@@]32C)cc1C (racemic) [Example 102, (rac)-(2s,4*5)-2-((1*R,5*S,6*R)-6-(3,4-Dimethylphenyl)-1-methyl-3-azabicyclo[3.1.0]hexane-3-carbonyl)-7-oxa-5-azaspiro[3.4]octan-6-one] | 23 nM |
| CC(C)c1ccc([C@H]2[C@@H]3CN(C(=O)[C@H]4C[C@]5(CCC(=O)N5)C4)C[C@@H]32)cc1 [Example 91, (2r,4S)-2-((1R,5S,6S)-6-(4-Isopropylphenyl)-3-azabicyclo[3.1.0]hexane-3-carbonyl)-5-azaspiro[3.4]octan-6-one] | 20 nM |
| Cc1ccc([C@H]2[C@@H]3CN(C(=O)[C@H]4C[C@]5(COC(=O)N5)C4)C[C@@H]32)cc1C [Example 88, (2s,4S)-2-((1R,5S,6S)-6-(3,4-Dimethylphenyl)-3-azabicyclo[3.1.0]hexane-3-carbonyl)-7-oxa-5-azaspiro[3.4]octan-6-one] | 29 nM |
| CCc1cc([C@H]2[C@@H]3CN(C(=O)[C@H]4C[C@]5(COC(=O)N5)C4)C[C@@H]32)ccc1F [Example 111, (2s,4S)-2-((1R,5S,6S)-6-(3-Ethyl-4-fluorophenyl)-3-azabicyclo[3.1.0]hexane-3-carbonyl)-7-oxa-5-azaspiro[3.4]octan-6-one] | 11 nM |
| Cc1cccc([C@]23CCN(C(=O)[C@H]4C[C@]5(COC(=O)N5)C4)C[C@H]2C3)c1 (stereo in doubt) [Example 44, (2s,4*R)-2-((1*S,6*R)-6-(m-Tolyl)-3-azabicyclo[4.1.0]heptane-3-carbonyl)-7-oxa-5-azaspiro[3.4]octan-6-one] | 2.8 nM |
| Cc1ccc([C@H]2[C@@H]3CN(C(=O)[C@H]4C[C@]5(COC(=O)N5)C4)C[C@@H]32)cc1OC(F)(F)F [Example 115, (2s,4S)-2-((1R,5S,6S)-6-(4-Methyl-3-(trifluoromethoxy)phenyl)-3-azabicyclo[3.1.0]hexane-3-carbonyl)-7-oxa-5-azaspiro[3.4]octan-6-one] | 5.2 nM |
| O=C1N[C@]2(CO1)C[C@H](C(=O)N1CCC3(c4ccccc4)C(C1)C3(Cl)Cl)C2 (racemic) [Example 124, (rac)-(2s,4s)-2-(7,7-Dichloro-6-phenyl-3-azabicyclo[4.1.0]heptane-3-carbonyl)-7-oxa-5-azaspiro[3.4]octan-6-one] | 32 nM |
